“Also recorded” adds a separate entry of the source.
How the values were obtained:
CCRF-CEM (leukemia) = assay: NCI 60-cell one-dose antiproliferative screen; format: cell-based, human; details: one dose 10 μM
RPMI-8226 (leukemia) = assay: NCI 60-cell one-dose antiproliferative screen; format: cell-based, human; details: one dose 10 μM
[1] = system: A549/ATCC (NSC lung cancer); assay: NCI 60-cell one-dose antiproliferative screen; format: cell-based, human; details: one dose 10 μM
EKVX (NSC lung cancer) = assay: NCI 60-cell one-dose antiproliferative screen; format: cell-based, human; details: one dose 10 μM
HOP-62 (NSC lung cancer) = assay: NCI 60-cell one-dose antiproliferative screen; format: cell-based, human; details: one dose 10 μM
HOP-92 (NSC lung cancer) = assay: NCI 60-cell one-dose antiproliferative screen; format: cell-based, human; details: one dose 10 μM
[2] = system: NCI-H226 (NSC lung cancer); assay: NCI 60-cell one-dose antiproliferative screen; format: cell-based, human; details: one dose 10 μM
[3] = system: NCI-H23 (NSC lung cancer); assay: NCI 60-cell one-dose antiproliferative screen; format: cell-based, human; details: one dose 10 μM
[4] = system: NCI-H322M (NSC lung cancer); assay: NCI 60-cell one-dose antiproliferative screen; format: cell-based, human; details: one dose 10 μM
[5] = system: NCI-H460 (NSC lung cancer); assay: NCI 60-cell one-dose antiproliferative screen; format: cell-based, human; details: one dose 10 μM
[6] = system: NCI-H522 (NSC lung cancer); assay: NCI 60-cell one-dose antiproliferative screen; format: cell-based, human; details: one dose 10 μM
HCC-2998 (colon cancer) = assay: NCI 60-cell one-dose antiproliferative screen; format: cell-based, human; details: one dose 10 μM
HCT-116 (colon cancer) = assay: NCI 60-cell one-dose antiproliferative screen; format: cell-based, human; details: one dose 10 μM
HCT-15 (colon cancer) = assay: NCI 60-cell one-dose antiproliferative screen; format: cell-based, human; details: one dose 10 μM
HT29 (colon cancer) = assay: NCI 60-cell one-dose antiproliferative screen; format: cell-based, human; details: one dose 10 μM
KM12 (colon cancer) = assay: NCI 60-cell one-dose antiproliferative screen; format: cell-based, human; details: one dose 10 μM
SF-295 (CNS cancer) = assay: NCI 60-cell one-dose antiproliferative screen; format: cell-based, human; details: one dose 10 μM
SF-539 (CNS cancer) = assay: NCI 60-cell one-dose antiproliferative screen; format: cell-based, human; details: one dose 10 μM
SNB-75 (CNS cancer) = assay: NCI 60-cell one-dose antiproliferative screen; format: cell-based, human; details: one dose 10 μM
MALME-3M (melanoma) = assay: NCI 60-cell one-dose antiproliferative screen; format: cell-based, human; details: one dose 10 μM
M14 (melanoma) = assay: NCI 60-cell one-dose antiproliferative screen; format: cell-based, human; details: one dose 10 μM
MDA-MB-435 (melanoma) = assay: NCI 60-cell one-dose antiproliferative screen; format: cell-based, human; details: one dose 10 μM
SK-MEL-28 (melanoma) = assay: NCI 60-cell one-dose antiproliferative screen; format: cell-based, human; details: one dose 10 μM
UACC-62 (melanoma) = assay: NCI 60-cell one-dose antiproliferative screen; format: cell-based, human; details: one dose 10 μM
IGROV1 (ovarian cancer) = assay: NCI 60-cell one-dose antiproliferative screen; format: cell-based, human; details: one dose 10 μM
OVCAR-3 (ovarian cancer) = assay: NCI 60-cell one-dose antiproliferative screen; format: cell-based, human; details: one dose 10 μM
OVCAR-5 (ovarian cancer) = assay: NCI 60-cell one-dose antiproliferative screen; format: cell-based, human; details: one dose 10 μM
OVCAR-8 (ovarian cancer) = assay: NCI 60-cell one-dose antiproliferative screen; format: cell-based, human; details: one dose 10 μM
[7] = system: NCI/ADR-RES (ovarian cancer); assay: NCI 60-cell one-dose antiproliferative screen; format: cell-based, human; details: one dose 10 μM
SK-OV-3 (ovarian cancer) = assay: NCI 60-cell one-dose antiproliferative screen; format: cell-based, human; details: one dose 10 μM
786-0 (renal cancer) = assay: NCI 60-cell one-dose antiproliferative screen; format: cell-based, human; details: one dose 10 μM
ACHN (renal cancer) = assay: NCI 60-cell one-dose antiproliferative screen; format: cell-based, human; details: one dose 10 μM
CAKI-1 (renal cancer) = assay: NCI 60-cell one-dose antiproliferative screen; format: cell-based, human; details: one dose 10 μM
RXF 393 (renal cancer) = assay: NCI 60-cell one-dose antiproliferative screen; format: cell-based, human; details: one dose 10 μM
SN12C (renal cancer) = assay: NCI 60-cell one-dose antiproliferative screen; format: cell-based, human; details: one dose 10 μM
TK-10 (renal cancer) = assay: NCI 60-cell one-dose antiproliferative screen; format: cell-based, human; details: one dose 10 μM
PC-3 (prostate cancer) = assay: NCI 60-cell one-dose antiproliferative screen; format: cell-based, human; details: one dose 10 μM
DU-145 (prostate cancer) = assay: NCI 60-cell one-dose antiproliferative screen; format: cell-based, human; details: one dose 10 μM
MCF7 (breast cancer) = assay: NCI 60-cell one-dose antiproliferative screen; format: cell-based, human; details: one dose 10 μM
[8] = system: MDA-MB-231/ATCC (breast cancer); assay: NCI 60-cell one-dose antiproliferative screen; format: cell-based, human; details: one dose 10 μM
HS 578T (breast cancer) = assay: NCI 60-cell one-dose antiproliferative screen; format: cell-based, human; details: one dose 10 μM
[9] = system: 60 human tumor cell lines; assay: NCI 60-cell one-dose antiproliferative screen, whole panel; format: cell-based; details: Homo sapiens, 60 cell, read-out: Mean inhibition (mean GI%)
[10] = MTT cytotoxicity assay, MCF10a; format: cell-based; details: human, MCF10a normal mammary epithelial cells
c-Met kinase = c-Met kinase (Homo sapiens, UniProt P08581); assay: c-Met kinase inhibition assay; format: biochemical
Sequence of c-Met kinase (P08581 25-1390): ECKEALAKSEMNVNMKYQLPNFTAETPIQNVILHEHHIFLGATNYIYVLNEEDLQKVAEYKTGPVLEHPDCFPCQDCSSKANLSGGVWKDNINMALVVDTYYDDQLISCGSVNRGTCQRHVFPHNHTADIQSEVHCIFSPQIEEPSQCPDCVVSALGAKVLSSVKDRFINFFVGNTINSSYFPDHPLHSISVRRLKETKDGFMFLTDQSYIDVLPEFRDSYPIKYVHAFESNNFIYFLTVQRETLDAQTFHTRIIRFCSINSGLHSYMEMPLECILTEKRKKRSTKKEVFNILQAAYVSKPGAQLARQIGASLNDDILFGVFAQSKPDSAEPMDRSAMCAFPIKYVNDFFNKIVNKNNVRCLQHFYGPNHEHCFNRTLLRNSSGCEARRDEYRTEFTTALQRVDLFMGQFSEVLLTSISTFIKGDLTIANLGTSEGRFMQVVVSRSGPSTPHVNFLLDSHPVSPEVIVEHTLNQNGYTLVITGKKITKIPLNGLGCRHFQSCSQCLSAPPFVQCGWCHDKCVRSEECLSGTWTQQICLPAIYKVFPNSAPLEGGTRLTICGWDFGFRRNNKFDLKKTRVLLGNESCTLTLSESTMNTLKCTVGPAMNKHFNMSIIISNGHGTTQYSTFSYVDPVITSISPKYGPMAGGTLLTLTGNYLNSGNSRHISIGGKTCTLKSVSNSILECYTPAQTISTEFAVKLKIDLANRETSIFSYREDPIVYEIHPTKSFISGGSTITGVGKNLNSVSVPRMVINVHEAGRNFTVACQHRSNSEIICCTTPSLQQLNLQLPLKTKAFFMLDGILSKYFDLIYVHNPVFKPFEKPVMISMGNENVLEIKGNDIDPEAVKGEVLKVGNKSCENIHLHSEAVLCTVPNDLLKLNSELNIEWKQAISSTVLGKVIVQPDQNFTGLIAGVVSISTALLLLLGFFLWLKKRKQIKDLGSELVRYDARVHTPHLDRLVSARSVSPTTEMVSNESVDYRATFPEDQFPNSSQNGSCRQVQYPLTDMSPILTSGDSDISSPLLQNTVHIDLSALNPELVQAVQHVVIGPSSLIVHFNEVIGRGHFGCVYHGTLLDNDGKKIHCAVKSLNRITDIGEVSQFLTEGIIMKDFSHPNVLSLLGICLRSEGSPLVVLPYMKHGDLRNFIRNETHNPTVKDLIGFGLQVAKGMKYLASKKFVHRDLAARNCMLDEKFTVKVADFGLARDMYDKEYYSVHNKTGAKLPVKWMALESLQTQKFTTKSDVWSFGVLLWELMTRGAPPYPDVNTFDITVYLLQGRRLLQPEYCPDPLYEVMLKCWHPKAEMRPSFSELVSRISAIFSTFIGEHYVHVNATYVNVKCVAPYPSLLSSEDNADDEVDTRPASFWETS

Pim-1 kinase = Pim-1 kinase (Homo sapiens, UniProt P11309); assay: Pim-1 kinase inhibition assay; format: biochemical
Sequence of Pim-1 kinase (P11309 whole entry): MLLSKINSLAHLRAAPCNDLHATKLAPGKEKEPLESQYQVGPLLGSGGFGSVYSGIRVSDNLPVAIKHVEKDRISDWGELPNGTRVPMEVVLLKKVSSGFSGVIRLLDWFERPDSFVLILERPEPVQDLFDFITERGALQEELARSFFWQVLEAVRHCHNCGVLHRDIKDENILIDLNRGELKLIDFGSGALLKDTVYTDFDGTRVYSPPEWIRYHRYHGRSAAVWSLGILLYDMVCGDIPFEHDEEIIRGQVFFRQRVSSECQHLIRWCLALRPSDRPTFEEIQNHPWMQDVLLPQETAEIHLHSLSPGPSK

MCF7 cells [11] = assay: Cell cycle analysis by flow cytometry; format: cell-based, human
MCF7 cells [12] = assay: Annexin V/PI dual staining apoptosis assay; format: cell-based, human; details: MCF7, 24 h, 4g at IC50 (0.56 μM)
[13] = MCF7, 4g at IC50 (0.56 μM), 24 h
[14] = MCF7, 4g at IC50 (0.56 μM), relative to DMSO control

SMILES: COc1ccc(-c2nnc3ccc(NN=Cc4ccc(O)cc4)nn23)cc1 [Compound 4g, 4-((2-(3-(4-Methoxyphenyl)-[1,2,4]triazolo[4,3-b]pyridazin-6-yl)hydrazono)methyl)phenol]
- GI% (CCRF-CEM (leukemia)): 85.88%
- GI% (RPMI-8226 (leukemia)): 86.88%
- GI% [1]: 41.49%
- GI% (EKVX (NSC lung cancer)): 62.20%
- GI% (HOP-62 (NSC lung cancer)): — (— GI% is below 15%)
- GI% (HOP-92 (NSC lung cancer)): 68.67%
- GI% [2]: 22.48%
- GI% [3]: 67.47%
- GI% [4]: 38.06%
- GI% [5]: 55.73%
- GI% [6]: 53.35%
- GI% (HCC-2998 (colon cancer)): 85.07%
- GI% (HCT-116 (colon cancer)): 72.71%
- GI% (HCT-15 (colon cancer)): 73.30%
- GI% (HT29 (colon cancer)): — (— GI% is below 15%)
- GI% (KM12 (colon cancer)): 71.51%
- GI% (SF-295 (CNS cancer)): 56.41%
- GI% (SF-539 (CNS cancer)): 63.61%
- GI% (SNB-75 (CNS cancer)): 46.38%
- GI% (MALME-3M (melanoma)): 35.83%
- GI% (M14 (melanoma)): 43.64%
- GI% (MDA-MB-435 (melanoma)): 54.20%
- GI% (SK-MEL-28 (melanoma)): 30.86%
- GI% (UACC-62 (melanoma)): 41.19%
- GI% (IGROV1 (ovarian cancer)): 60.66%
- GI% (OVCAR-3 (ovarian cancer)): 62.40%
- GI% (OVCAR-5 (ovarian cancer)): — (— GI% is below 15%)
- GI% (OVCAR-8 (ovarian cancer)): 54.60%
- GI% [7]: 73.98%
- GI% (SK-OV-3 (ovarian cancer)): — (— GI% is below 15%)
- GI% (786-0 (renal cancer)): 77.10%
- GI% (ACHN (renal cancer)): 56.52%
- GI% (CAKI-1 (renal cancer)): 78.54%
- GI% (RXF 393 (renal cancer)): 57.34%
- GI% (SN12C (renal cancer)): 57.71%
- GI% (TK-10 (renal cancer)): 61.05%
- GI% (PC-3 (prostate cancer)): 59.52%
- GI% (DU-145 (prostate cancer)): 48.11%
- GI% (MCF7 (breast cancer)): 86.77%
- GI% [8]: 39.44%
- GI% (HS 578T (breast cancer)): 53.18%
- inhibition at 10 µM [9]: 55.8%
- IC50 at 72 h [10]: 10700 ± 560 nM
- IC50 (c-Met kinase): 163 ± 10 nM
- IC50 (Pim-1 kinase): 283 ± 10 nM
- %G0-G1 (MCF7 cells [11]; [13]): 52.94%
- %G2/M (MCF7 cells [11]; [13]): 4.13%
- drop in the cell population at G0/G1 phase (MCF7 cells [11]; [14]): 10.48%
- drop in the cell population at G2/M phase (MCF7 cells [11]; [14]): 46.84%
- increase in the proportion of cells in the S phase (MCF7 cells [11]; MCF7, 4g at IC50 (0.56 μM), versus control (DMSO)): 1.29 fold
- cell cycle arrest phase (MCF7 cells [11]; MCF7 cells): arrest in the S stage of the cell cycle; also recorded: arrest in the proliferation of MCF7 cells in the S phase; also recorded: ceased the proliferation of MCF-7 cancer cells in the S phase
- Apoptosis Early (MCF7 cells [12]): 25.16%
- Apoptosis Late (MCF7 cells [12]): 18.13%
- Necrosis (MCF7 cells [12]): 5.27%
- increase in the percentage of total apoptosis (MCF7 cells [12]; compared to the control): 29.61 fold
